These results are taken from patent US20210254000A1, “PROCESS FOR PRODUCING A T CELL COMPOSITION” (Juno Therapeutics, Inc., priority 2017, published 2021).

Holding throughout (format): cell-based, human
One assay relates to anti-CD19 CAR+ T cells. Description: Chronic stimulation assay with anti-ID conjugated beads (14 days). As to conditions: inhibitor present from initiation of stimulation; for primary or secondary cytolytic response: 3:1 effector:target cell ratio; for primary or secondary responses: ability of CAR-T cell compositions to produce cytokines: at thaw or after 14 day anti-ID bead stimulation, K562-CD19 1:1. An excerpt:
Separate compositions of CD4+ and CD8+ cells were isolated from human donors, stimulated by activation with anti-CD3/anti-CD28 magnetic beads and transduced with a viral vector encoding an anti-CD19 CAR having an scFv derived from FMC63. Following cultivation under conditions to expand the cells, T cell compositions containing engineered CD4+ and CD8+ T cells from each donor were then separately harvested, formulated, and cryofrozen. The cryofrozen engineered CD4+ and CD8+ T cells were thawed and formulated at a 1:1 ratio of CD4+ and CD8+ T cells from the same donor to generate a T cell composition containing CAR+ T cells. Anti-idiotype (ID) antibody conjugated beads against the anti-CD19 CAR were incubated with cells at a 1:1 bead:cell ratio for 14 days.
Secondary response of CAR-T cells harvested at day 14 following CAR-specific stimulation with anti-ID conjugated beads (Day 14; secondary) was assessed after stimulation with K562-CD19 antigen-expressing target cells at an effector to target ratio of 1:1 (to assess cytokine levels) or 3:1 (to assess cytolytic activity). The primary response of T cells from the T cell composition that had not been incubated with the anti-ID conjugated beads also was determined by similar stimulation with antigen-expressing cells (Day 0; “primary”). To assess cytolytic activity, the target cells were labeled with NucLight Red (NLR) to permit tracking by fluorescent microscopy. Killing activity was assessed by measuring the loss of viable target cells over 72 hours, as determined by loss of fluorescent signal over time by kinetic fluorescence microscopy (using the INCUCYTE® Live Cell Analysis System, Essen Bioscience). Killing index was determined as the inverse of the area under the curve (AUC) for target fluorescence over time. Intracellular cytokine levels of IL-2 and TNF-alpha were assessed by flow cytometry in co-cultured T cells after incubation in the presence of a Golgi Inhibitor. […]
Primary response of CAR-T cell compositions at thaw (no stimulation with anti-ID conjugated beads) or secondary response of CAR-stimulated CAR-T compositions (following 14 day CAR-specific stimulation with anti-ID conjugated beads) was assessed after stimulation with antigen-expressing cells. CAR-T cell compositions were cultured 1:1 with K562-CD19 antigen-expressing cells in the presence of a Golgi Inhibitor, and polyfunctional cytokine production was assessed by flow cytometry following intracellular cytokine staining for IL-2, IFN-gamma and TNF-alpha. A polyfunctional score was determined from cumulative levels of cytokines as determined in CD8+ cells after the data were normalized by scaling within donor cohorts (FIG. 13A). […]

The next assay has as its system CAR-T cells. The experiment in a line: Expansion of CAR-T cells on CAR-specific beads for 14 days (mixed CD4+/CD8+ process). As to conditions: CAR-T cells prepared with 2 μM PI103 or 1 μM Compound 63. The procedure:
Separate compositions of CD4+ and CD8+ cells were selected from isolated PBMCs from a leukapheresis sample from the same human donor by immunoaffinity based selection, and the selected cell compositions were cryofrozen. The separate compositions of CD4+ and CD8+ T cells were subsequently thawed and mixed at a ratio of 1:1 of viable CD4+ T cells to viable CD8+ T cells. In this study, the mixed CD4+ and CD8+ cell populations were incubated in the presence of Compound 63, PI103 or no inhibitor (DMSO vehicle control) beginning at the initiation of stimulation. In more detail, the mixed CD4+ and CD8+ T cell composition was stimulated (in the presence or absence of an inhibitor, as indicated) in the presence of paramagnetic polystyrene-coated beads with attached anti-CD3 and anti-CD28 antibodies for between 18 to 30 hours, and were then transduced with a lentiviral vector encoding an anti-CD19 CAR. The CAR contained an scFv antigen-binding domain specific for CD19 (derived from FMC63), a CD28 transmembrane region, a 4-1BB costimulatory signaling region, and a CD3-zeta derived intracellular signaling domain. […]
Functional attributes of the generated CAR-T cells were assessed in a serial stimulation assay by incubation of the generated CAR-T cells antibody conjugated to beads. […] Every 3-4 days, T cells were, counted.

In a further assay the test system is CD4+ and/or CD8+ T cells. Description: RNA-Seq gene expression of CAR-T cells expanded with inhibitor. As to conditions: FDR≤10%. The procedure: Gene expression among cells of the generated anti-CD19 CAR-T cell compositions described in Example 2, generated by expanding the cells in the presence of PI-103, Compound 63, DMSO vehicle, or media only, was assessed by RNA sequencing (RNA-Seq). RNA was extracted from compositions generated from three donors under each expansion condition and an assessment of the whole-transcriptome was performed by RNA-Seq. FPKM and FPKQ values were determined; FPKQ values were log-transformed (log 2). Gene expression was determined by comparing expression profiles of CD4+, CD8+ or combined CD4+/CD8+ cells among cells of the generated anti-CD19 CAR-T cell compositions that were expanded in the presence of media only, PI-103, or Compound 63, as compared to cells expanded with DMSO vehicle. Gene products were identified that were different among each groups based on analysis of a volcano plot by imposing cutoff of FDR≤10% between the two conditions.

On to `Oc1cccc(-c2nc(N3CCOCC3)c3oc4ncccc4c3n2)c1` [PI-103, reference compound], for which, in the assay on anti-CD19 CAR+ T cells, the “primary or secondary cytolytic response” value was “Improvements in primary or secondary cytolytic response” and the “primary or secondary responses: ability of CAR-T cell compositions to produce cytokines” value was “improved primary or secondary responses”. Further, the “expansion after restimulation with CAR-specific beads” value in the assay on CAR-T cells is recorded as “improved expansion after restimulation”. Further, in the assay with CD4+ and/or CD8+ T cells, the “gene expression (RNA-Seq) compared to cells expanded with DMSO vehicle” value was “significantly changed gene expression”.

On to `CC(C)c1ccccc1-n1c(=O)[nH]c2c(C(N)=O)nc(-c3cccc(O)c3)nc21` [Compound 63, 2-(3-Hydroxyphenyl)-9-(2-isopropylphenyl)-8-oxo-8,9-dihydro-7H-purine-6-carboxamide], for which, in the assay with anti-CD19 CAR+ T cells, the “primary or secondary cytolytic response” value was “Improvements in primary or secondary cytolytic response” and the “primary or secondary responses: ability of CAR-T cell compositions to produce cytokines” value is on record as “improved primary or secondary responses”. Moreover, the “expansion after restimulation with CAR-specific beads” value in the assay with CAR-T cells was “improved expansion after restimulation”. Moreover, the “gene expression (RNA-Seq) compared to cells expanded with DMSO vehicle” value with CD4+ and/or CD8+ T cells was “significantly changed gene expression”.
